Results reported in patent US9629822B2, “Flavonoid based antiviral targets” (UNIVERSITY OF CENTRAL FLORIDA RESEARCH FOUNDATION, INC., priority 2012, dated 2017).
Read-outs that look alike come from different tables or passages of the source.

Experiments:
US28 receptor [1] = target: T1, US28 receptor (Human cytomegalovirus, UniProt P69332); details: same Elk1 reporter assay, from ref 13; cited from earlier work
T1 construct: expressed in transfected cells; host or cells: HEK 293T cells, transiently transfected

US28 receptor [2] = target: T1, US28 receptor; test: PathDetect trans Elk1 luciferase reporter gene assay in US28-transfected 293T HEK cells; format: cell-based, Human Cytomegalovirus (HCMV); details: for EC50: 293T HEK cells transiently expressing US28, Elk1 reporter, NE = no effect when tested at 10 μM of compound; for Efficacy(%): maximum intrinsic activity from dose-response curve; for Efficacy(%) / Emax: negative = inverse agonism; for Emax: read-out: Efficacy(%), maximum intrinsic activity from dose-response curve; for type of activity on the US28 receptor (agonist / inverse agonist / none), in words: Elk1 reporter, US28-transfected HEK cells
How it was run: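 HEK293T cells transiently transfected with Elk1, Luc and US28 vector (empty pcDNA3 for mock) were dosed with compounds in DMEM/1% FBS with 1% DMSO for 20-24 h at 37° C. Bright-Glo luminescence decrease was read; EC50 is halfway between maximal response and no-compound control, by non-linear regression.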

HIV-1 BaL = test: Anti-HIV assay (luciferase, HIV-1 BaL infection); format: cell-based; details: 10 μM, Experiment 1B, 2 ng/mL p24 HIV-1 BaL; for inhibition at 10 µM: Human immunodeficiency virus 1, BAL
How it was run: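 Cells infected with HIV-1 BaL at 2 ng/mL p24 (MOI approx 0.02) in compound presence. Infection read out by luciferase.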

[3] = TZMbI assay for cell safety (cell viability and growth, CytoTox Glo); details: human, TZMbI cells, 10 μM, Experiment 1A; read-out: % decrease in viability compared to 0.1% DMSO vehicle based on viable cell luminescence
Experimental: Assays were performed below in accordance with the procedures set forth in The Journal of Immunology, 2006, 176, pp. 6900-905; AIDS Research and Human Retroviruses, 2004, 20:11, pp. 1157-1665.^32,33 TZMbI assays for cell safety were performed to identify potential anti-viral compounds. TZMbI assays for cell safety were performed to identify potential anti-viral compounds per the methods.

CHO cells = test: CHO cell toxicity, MTS assay, 48 h; format: cell-based, Chinese hamster; details: Cricetulus griseus, CHO, 37° C., MTS reagent, read-out: CHO 48 h IC50 value
How it was run: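 CHO cells plated at 10,000 cells/mL, incubated overnight, then exposed to drug (final DMSO <1%) for 48 h at 37 °C, 5% CO2, in triplicate. MTS added for a further 4 h; absorbance read at 490 nm. IC50 taken from relative A490 versus drug concentration.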

[4] = test system: mock transfected 293T HEK cells; test: PathDetect Elk1 luminescence in mock transfected (empty pcDNA3 vector) 293T HEK cells, off-target effect; format: cell-based, human; details: 10 μM vs 1% DMSO control, Equation 1; for activation at 10 µM: Homo sapiens, read-out: Effect(%) on mock cells with each drug at 10 μM
How it was run: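 HEK 293T cells were transiently transfected with PathDetect Elk1/luciferase and empty pcDNA3, then exposed to 10 μM compound in medium with 1% FBS and 1% DMSO for 20-24 h at 37 °C. BrightGlo luminescence was compared with the 1% DMSO control: % effect = 100%×(mock/DMSO) − 100%.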

T1 sequence (P69332 whole entry): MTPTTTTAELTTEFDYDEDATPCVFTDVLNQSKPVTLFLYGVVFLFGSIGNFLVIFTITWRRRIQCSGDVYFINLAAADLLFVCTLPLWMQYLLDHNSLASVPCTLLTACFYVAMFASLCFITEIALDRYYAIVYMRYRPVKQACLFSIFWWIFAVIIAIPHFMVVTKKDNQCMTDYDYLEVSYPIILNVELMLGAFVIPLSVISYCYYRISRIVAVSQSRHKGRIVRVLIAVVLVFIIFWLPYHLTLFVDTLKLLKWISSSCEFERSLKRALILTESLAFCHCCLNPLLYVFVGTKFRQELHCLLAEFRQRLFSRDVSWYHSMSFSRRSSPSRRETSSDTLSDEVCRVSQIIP

SMILES | EC50 (US28 receptor [1]) [µM] | efficacy (US28 receptor [1]) [%] | EC50 (US28 receptor [2]; EC50 (μM)) [µM] | Efficacy(%) (US28 receptor [2]) | Emax (US28 receptor [2]) [%] | RLU (relative luciferase units) (HIV-1 BaL) [RLU] | inhibition at 10 µM (HIV-1 BaL) [%] | cytotoxicity at 10 μM [3] [%] | melting point [°C] | IC50 (CHO cells) [µM] | Effect(%) on mock cells with each drug at 10 μM [4] [%] | activation at 10 µM [4] [%] | type of activity on the US28 receptor (agonist / inverse agonist / none), in words (US28 receptor [2]) | Emax at 10 µM (US28 receptor [2]; read-out: Efficacy(%), 10 μM single concentration) [%] | EC50 (US28 receptor [2]) [µM]
N#CC(CCCN1CCC(O)(c2ccc(Cl)cc2)CC1)(c1ccccc1)c1ccccc1 [Compound 5a, VUF2274] | 4.5 | ~22 |  |  |  |  |  |  |  |  |  |  |  |  | 
COc1ccc(I)cc1/C=C/C(=O)c1ccccc1O [Compound 8g, (E)-1-(2-hydroxyphenyl)-3-(5-iodo-2-methoxyphenyl)prop-2-en-1-one] |  |  | 5.5 | ~94 | ~94 | 3.3 | 99.6 | 99.7 | 107 to 109 | 6.7 ± 0.7 | 100 | 100 |  |  | 
CCOc1ccc(Cl)cc1/C=C/C(=O)c1ccccc1O [Compound 8i, (E)-3-(5-chloro-2-ethoxyphenyl)-1-(2-hydroxyphenyl)prop-2-en-1-one] |  |  | 6.4 | ~76 | ~76 | 130.4 | 86.2 | 87.1 | 61 to 65 | 6.8 ± 0.9 | 33 | 33 |  |  | 
COc1ccc(C)cc1/C=C/C(=O)c1ccccc1O [Compound 8j, (E)-1-(2-hydroxyphenyl)-3-(2-methoxy-5-methylphenyl)prop-2-en-1-one] |  |  |  |  |  | 345.7 | 63.1 | 47 | 69 to 72 | 14.2 ± 2.7 |  | -4 | agonist activity | 52 | 
COc1cc(OC)c(-c2oc3ccccc3c(=O)c2O)cc1Br [Compound 9e, 2-(5-Bromo-2,4-dimethoxyphenyl)-3-hydroxy-4H-chromen-4-one] |  |  |  |  |  | 693.9 | 25.9 | -11.9 | 196 to 201 | 18.3 ± 2.5 |  | -17 |  |  | > 10
COc1ccc(Br)cc1-c1oc2cccc(OC)c2c(=O)c1O [Compound 9f, 2-(5-Bromo-2-methoxyphenyl)-3-hydroxy-5-methoxy-4H-chromen-4-one] |  |  |  |  |  | 528.5 | 43.6 | -0.2 | 207 to 213 | 17.3 ± 1.9 |  | -1 |  |  | > 10
COc1ccc(I)cc1-c1oc2ccccc2c(=O)c1O [Compound 9g, 3-Hydroxy-2-(5-iodo-2-methoxyphenyl)-4H-chromen-4-one] |  |  |  |  |  | 358.6 | 61.7 | 15.3 | 153 to 159 | 17.9 ± 1.6 |  | -23 |  |  | > 10
COc1ccc(C)cc1-c1oc2ccccc2c(=O)c1O [Compound 9j, 3-hydroxy-2-(2-methoxy-5-methylphenyl)-4H-chromen-4-one] |  |  | 1.78 |  | -38 | 814.0 | 13 | 4.8 | 158 to 164 | 54.6 ± 4.2 | 0 | 0 | inhibited US28 receptor constitutive activity |  | 
